Data published in US11076594B2, “Pyrazolone compound or salt thereof, preparation method therefor, herbicide composition and use thereof” (QINGDAO KINGAGROOT CHEMICAL COMPOUNDS CO., LTD., priority 2015, dated 2021).

What was measured:
Assay type in all cases: in vivo
[1] = test system: Indian mallow; test: weed control effect in post-emergence stage (Table 1); set-up: key: Level 10: completely dead; Level 9: above 95% growth control rate; Level 8: above 90% growth control rate; Level 7: above 80% growth control rate; Level 6: above 70% growth control rate; Level 5: above 60% growth control rate; Level 4: above 50% growth control rate; Level 3: above 20% growth control rate; Level 2: 5%-20% growth control rate; Level 1: below 5% growth control rate; settings: post-emergence spray at 4-5 leaf stage, 250 g/ha active ingredient with 450 kg/ha water, rated after 3 weeks in greenhouse
In short: (§1)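 Seeds were sown in pots, covered with 0.5-2 cm soil and grown in a greenhouse. At the 4-5 leaf stage, plants were sprayed with the test compound formulated in acetone, Tween 80 and water. Fresh weight control was rated after 3 weeks.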

[2] = test system: bidens bipinnata; test: as above; set-up: key: Level 10: completely dead; Level 9: above 95% growth control rate; Level 8: above 90% growth control rate; Level 7: above 80% growth control rate; Level 6: above 70% growth control rate; Level 5: above 60% growth control rate; Level 4: above 50% growth control rate; Level 3: above 20% growth control rate; Level 2: 5%-20% growth control rate; Level 1: below 5% growth control rate; settings: post-emergence spray at 4-5 leaf stage, 250 g/ha active ingredient with 450 kg/ha water, rated after 3 weeks in greenhouse
In short: as §1

[3] = test system: crab grass; test: as above; set-up: key: Level 10: completely dead; Level 9: above 95% growth control rate; Level 8: above 90% growth control rate; Level 7: above 80% growth control rate; Level 6: above 70% growth control rate; Level 5: above 60% growth control rate; Level 4: above 50% growth control rate; Level 3: above 20% growth control rate; Level 2: 5%-20% growth control rate; Level 1: below 5% growth control rate; settings: post-emergence spray at 4-5 leaf stage, 250 g/ha active ingredient with 450 kg/ha water, rated after 3 weeks in greenhouse
In short: as §1

[4] = test system: echinochloa; test: as above; set-up: key: Level 10: completely dead; Level 9: above 95% growth control rate; Level 8: above 90% growth control rate; Level 7: above 80% growth control rate; Level 6: above 70% growth control rate; Level 5: above 60% growth control rate; Level 4: above 50% growth control rate; Level 3: above 20% growth control rate; Level 2: 5%-20% growth control rate; Level 1: below 5% growth control rate; settings: post-emergence spray at 4-5 leaf stage, 250 g/ha active ingredient with 450 kg/ha water, rated after 3 weeks in greenhouse
In short: as §1

[5] = test system: foxtail; test: as above; set-up: key: Level 10: completely dead; Level 9: above 95% growth control rate; Level 8: above 90% growth control rate; Level 7: above 80% growth control rate; Level 6: above 70% growth control rate; Level 5: above 60% growth control rate; Level 4: above 50% growth control rate; Level 3: above 20% growth control rate; Level 2: 5%-20% growth control rate; Level 1: below 5% growth control rate; settings: post-emergence spray at 4-5 leaf stage, 250 g/ha active ingredient with 450 kg/ha water, rated after 3 weeks in greenhouse
In short: as §1

[6] = test system: rorippa indica; test: as above; set-up: key: Level 10: completely dead; Level 9: above 95% growth control rate; Level 8: above 90% growth control rate; Level 7: above 80% growth control rate; Level 6: above 70% growth control rate; Level 5: above 60% growth control rate; Level 4: above 50% growth control rate; Level 3: above 20% growth control rate; Level 2: 5%-20% growth control rate; Level 1: below 5% growth control rate; settings: post-emergence spray at 4-5 leaf stage, 250 g/ha active ingredient with 450 kg/ha water, rated after 3 weeks in greenhouse
In short: as §1

[7] = test system: wheat; test: post-emergence stage experiment, crop (Table 1); settings: post-emergence spray at 4-5 leaf stage, 250 g/ha active ingredient with 450 kg/ha water, rated after 3 weeks in greenhouse
In short: as §1

[8] = test system: rice; test: post-emergence stage experiment, crop (Table 1); set-up: key: Level 10: completely dead; Level 9: above 95% growth control rate; Level 8: above 90% growth control rate; Level 7: above 80% growth control rate; Level 6: above 70% growth control rate; Level 5: above 60% growth control rate; Level 4: above 50% growth control rate; Level 3: above 20% growth control rate; Level 2: 5%-20% growth control rate; Level 1: below 5% growth control rate; settings: post-emergence spray at 4-5 leaf stage, 250 g/ha active ingredient with 450 kg/ha water, rated after 3 weeks in greenhouse
In short: as §1

[9] = test system: alopecurus japonicas; test: wheat field resistant weed control, greenhouse spray at 4 leaf stage; settings: sprayed at 4 leaf stage, 4 weeks after treatment, resistant to ALS and ACCase inhibitor herbicides
Protocol: (§2) The activity level standard of harmful plant destruction (i.e. growth control rate) is as follows:
(§3) The above described growth control rate is fresh weight control rate.
(§4) The seeds of alopecurus japonicas, flixweed, shepherd's purse, corn gromwell, chickweed, beckmannia syzigachne, and annual ryegrass and wheat seeds were put into a plastic pot loaded with soil, and then covered with 0.5-2 cm soil, the seeds were allowed to grow in good greenhouse environment. The test plants were treated at 4 leaf stage 2-3 weeks after sowing. The test compounds of the present invention were dissolved in acetone respectively, then added with methyl oleate emulsion and diluted by certain amount of water to certain concentration. The solution was sprayed to the plant with a sprayer. Then the plants were cultured for 4 weeks in greenhouse.

[10] = test system: wheat; test: wheat field test, crop selectivity, greenhouse spray at 4 leaf stage; settings: sprayed at 4 leaf stage, 4 weeks after treatment
Protocol: as §2, §3, §4

[11] = test system: corn; test: post-emergence stage experiment, crop (Table 1); settings: post-emergence spray at 4-5 leaf stage, 250 g/ha active ingredient with 450 kg/ha water, rated after 3 weeks in greenhouse
In short: as §1

Structure (SMILES)	weed control effect, Indian mallow (level) [1]	weed control effect, Bidens bipinnata (level) [2]	weed control effect, Crab grass (level) [3]	weed control effect, Echinochloa (level) [4]	weed control effect, Green foxtail (level) [5]	weed control effect, Rorippa indica (level) [6]	effect on crop, Wheat (level) [7]	effect on crop, Rice (level) [8]	Alopecurus japonicas weed controlling effect (activity level) ([9]; 1 g/mu)	Alopecurus japonicas weed controlling effect (activity level) ([9]; 2 g/mu)	Alopecurus japonicas weed controlling effect (activity level) ([9]; 4 g/mu)	Alopecurus japonicas weed controlling effect (activity level) ([9]; 8 g/mu)	Wheat (activity level, crop damage) ([10]; 2 g/mu)	Wheat (activity level, crop damage) ([10]; 4 g/mu)	Wheat (activity level, crop damage) ([10]; 8 g/mu)	Wheat (activity level, crop damage) ([10]; 16 g/mu)	Wheat (activity level, crop damage) ([10]; 32 g/mu)	effect on crop, Corn (level) [11]
CCS(=O)(=O)Oc1c(C(=O)c2ccc(C(F)(F)F)c(N3CCCC3=O)c2Cl)c(C)nn1C [Compound 019]	10	9 (Level 9: above 95% growth control rate)	9 (Level 9: above 95% growth control rate)	9 (Level 9: above 95% growth control rate)	10	9 (Level 9: above 95% growth control rate)	0	7 (Level 7: above 80% growth control rate)	1 (Level 1: below 5% growth control rate)	4 (Level 4: above 50% growth control rate)	6 (Level 6: above 70% growth control rate)	6 (Level 6: above 70% growth control rate)	0	0	2 (Level 2: 5%-20% growth control rate)	3 (Level 3: above 20% growth control rate)	4 (Level 4: above 50% growth control rate)	–
COC(=O)Oc1c(C(=O)c2ccc(C(F)(F)F)c(N3CCCC3=O)c2Cl)c(C)nn1C [Compound 020]	10	9 (Level 9: above 95% growth control rate)	10	10	10	9 (Level 9: above 95% growth control rate)	0	8 (Level 8: above 90% growth control rate)	1 (Level 1: below 5% growth control rate)	6 (Level 6: above 70% growth control rate)	6 (Level 6: above 70% growth control rate)	8 (Level 8: above 90% growth control rate)	1 (Level 1: below 5% growth control rate)	3 (Level 3: above 20% growth control rate)	3 (Level 3: above 20% growth control rate)	4 (Level 4: above 50% growth control rate)	4 (Level 4: above 50% growth control rate)	–
CCn1ncc(C(=O)c2ccc(C(F)(F)F)c(N3CCCCC3=O)c2Cl)c1OC(=O)c1cn(C)nc1C [Compound 107]	10	9 (Level 9: above 95% growth control rate)	8 (Level 8: above 90% growth control rate)	10	10	6 (Level 6: above 70% growth control rate)	5 (Level 5: above 60% growth control rate)	8 (Level 8: above 90% growth control rate)	–	–	–	–	–	–	–	–	–	5 (Level 5: above 60% growth control rate)
Cn1ncc(C(=O)c2ccc(C(F)(F)F)c(N3CCCCC3=O)c2Cl)c1O [Compound 029]	7 (Level 7: above 80% growth control rate)	7 (Level 7: above 80% growth control rate)	7 (Level 7: above 80% growth control rate)	5 (Level 5: above 60% growth control rate)	9 (Level 9: above 95% growth control rate)	7 (Level 7: above 80% growth control rate)	3 (Level 3: above 20% growth control rate)	1 (Level 1: below 5% growth control rate)	–	–	–	–	–	–	–	–	–	7 (Level 7: above 80% growth control rate)
CCc1nn(CC)c(OC(=O)c2cn(C)nc2C)c1C(=O)c1ccc(C(F)(F)F)c(N2CCCCCC2=O)c1Cl [Compound 123]	10	7 (Level 7: above 80% growth control rate)	3 (Level 3: above 20% growth control rate)	10	6 (Level 6: above 70% growth control rate)	3 (Level 3: above 20% growth control rate)	1 (Level 1: below 5% growth control rate)	7 (Level 7: above 80% growth control rate)	–	–	–	–	–	–	–	–	–	4 (Level 4: above 50% growth control rate)
CCc1nn(CC)c(O)c1C(=O)c1ccc(C(F)(F)F)c(N2CCCCC2=O)c1Cl [Compound 112]	5 (Level 5: above 60% growth control rate)	1 (Level 1: below 5% growth control rate)	6 (Level 6: above 70% growth control rate)	10	5 (Level 5: above 60% growth control rate)	2 (Level 2: 5%-20% growth control rate)	3 (Level 3: above 20% growth control rate)	7 (Level 7: above 80% growth control rate)	–	–	–	–	–	–	–	–	–	3 (Level 3: above 20% growth control rate)
CCOC(=O)Oc1c(C(=O)c2ccc(C(F)(F)F)c(N3CCCCCC3=O)c2Cl)c(C)nn1C [Compound 055]	10	10	4 (Level 4: above 50% growth control rate)	8 (Level 8: above 90% growth control rate)	9 (Level 9: above 95% growth control rate)	2 (Level 2: 5%-20% growth control rate)	0	6 (Level 6: above 70% growth control rate)	–	–	–	–	–	–	–	–	–	0
CCn1nc(C2CC2)c(C(=O)c2ccc(C(F)(F)F)c(N3CCCC3=O)c2Cl)c1O [Compound 104]	10	7 (Level 7: above 80% growth control rate)	9 (Level 9: above 95% growth control rate)	10	10	10	5 (Level 5: above 60% growth control rate)	10	–	–	–	–	–	–	–	–	–	4 (Level 4: above 50% growth control rate)
